Results published in publication PMC4112042, “Phase 1 dose-escalation study of the PARP inhibitor CEP-9722 as monotherapy or in combination with temozolomide in patients with solid tumors” (Cancer Chemotherapy and Pharmacology, 2014).

Columns and labels:
[1] = Plasma pharmacokinetics of CEP-8983 after oral CEP-9722; type: in vivo, human; design: AUC0–∞, mean ± SD / AUC0–t, mean ± SD / AUCτ, mean ± SD: concentration or dose not given beside the values
Method: Pharmacokinetic serum samples were collected on day 1 of cycle 1 pre-dose and 0.5, 1, 2, 3, 4, 6, 8, 10, and 24 h post-dose; and on day 5 of cycle 1 and cycle 2 pre-dose, and 0.5, 1, 2, 3, 4, 6, 8, 10, 24, and 48 h post-dose. Urine samples were obtained on day 1 of cycle 1 during 4 intervals in the 24 h following study drug administration. Pharmacokinetic parameters (area under the plasma drug concentration–time curve from time 0 to infinity [AUC0–∞], AUC from time 0 to the time of the last measurable drug concentration [AUC0–t], AUC for 1 dosing interval [AUCτ] following multiple doses, maximum observed plasma concentration [C max], and time to maximum observed plasma concentration [T max]) were summarized at each visit (day 1 of cycle 1 and day 5 of cycles 1 and 2) using descriptive statistics.

[2] = nonacidic environments; cited from earlier work
[3] = in vivo; cited from earlier work
[4] = system: chemoresistant tumor cells; design: method as in PMID 17699724; details: in vitro and in xenograft models; cited from earlier work
[5] = system: PARP-1; details: PARP-1 enzyme; cited from earlier work
[6] = system: PARP-2; details: PARP-2 enzyme; cited from earlier work
[7] = system: human bone marrow cells; design: method as in PMID 17699724; details: CFU-GM colony-forming assay; cited from earlier work
[8] = day 5 of cycle 1, nonsmoker without medication affecting gastric pH, n = 13
[9] = day 5 of cycle 1, smoker and/or with medication affecting gastric pH, n = 11

SMILES: COc1cccc2[nH]c3c4c(c5c(c3c12)C(=O)NC5=O)CCC4 [CEP-8983]
- mean AUC0–t ([1]; day 1 of cycle 1, nonsmokers not receiving gastric pH-modifying medications): 4,960.6 ng h/mL
- mean AUC0–t ([1]; day 1 of cycle 1, smokers and/or patients receiving gastric pH-modifying medications): 2,747.3 ng h/mL
- AUC0–t, mean ± SD [1, 8]: 3,138.0 ± 2,160.74 ng h/mL
- AUC0–∞, mean ± SD [1, 8]: 4,111.0 ± 4,126.79 ng h/mL
- AUCτ, mean ± SD [1, 8]: 3,851.1 ± 3,578.78 ng h/mL
- C max, mean ± SD [1, 8]: 607.5 ± 319.87 ng/mL
- CL/F, mean ± SD [1, 8]: 20.4 ± 25.80 L/h
- Percentage extrapolation, mean ± SD [1, 8]: 3.7 ± 3.82%
- V/F, mean ± SD [1, 8]: 58.1 ± 60.23 L
- t max, mean ± SD [1, 8]: 36 ± 39.6 min
- λ z, mean ± SD [1, 8]: 0.1 ± 0.13 h⁻¹
- AUC0–t, mean ± SD [1, 9]: 1,339.3 ± 2,127.07 ng h/mL
- AUC0–∞, mean ± SD [1, 9]: 2,838.9 ± 5,740.57 ng h/mL
- AUCτ, mean ± SD [1, 9]: 2,304.7 ± 4,161.29 ng h/mL
- C max, mean ± SD [1, 9]: 352.5 ± 380.57 ng/mL
- CL/F, mean ± SD [1, 9]: 67.1 ± 62.14 L/h
- Percentage extrapolation, mean ± SD [1, 9]: 5.5 ± 8.29%
- V/F, mean ± SD [1, 9]: 102.3 ± 100.76 L
- t 1/2, mean ± SD [1, 9]: 42 ± 46.2 min
- t max, mean ± SD [1, 9]: 36 ± 39.6 min
- λ z, mean ± SD [1, 9]: 0.2 ± 0.21 h⁻¹
- mean AUC0–t ([1]; day 5 of cycle 2, nonsmokers not receiving gastric pH-modifying medications): 2,574.4 ng h/mL
- mean AUC0–t ([1]; day 5 of cycle 2, smokers and/or patients receiving gastric pH-modifying medications): 1,457.9 ng h/mL
- solubility [2]: poorly soluble
- oral bioavailability [3]: low oral bioavailability
- sensitivity of chemoresistant tumor cells to temozolomide [4]: increased the sensitivity
- IC50 [5]: 0.02 µM
- IC50 [6]: 0.006 µM
- myelotoxicity of temozolomide [7]: only modest increases
